Results: US10584127B2, “3,3-difluoropiperidine carbamate heterocyclic compounds as NR2B NMDA receptor antagonists” (Rugen Holdings (Cayman) Limited, priority 2015, dated 2020)

Columns and labels:
cloned human NR1/NR2A = cloned human NR1/NR2A (Homo sapiens (Human), UniProt Q12879); assay: NR2A antagonist activity, Fluo-4 calcium influx in HEK293 cells; format: cell-based; details: glutamate 100 μM, glycine 50 μM
Procedure: Activation of the NR2A or NR2B subtype of NMDA receptor with glutamate as an agonist and glycine co-agonist on these cells results in calcium influx, which can be monitored with fluorescent indicator Fluo-4.
For experiments, the cells were seeded onto poly-D-lysine-coated 96-well black plates with clear bottom (Corning) at a density of ^˜50,000 cells/well. After overnight culture, the growth medium was removed from the wells and the cells were incubated at 37° C. for 60 min in Hanks buffer containing 4 μM fluo-4-AM (Invitrogen) and 0.1% bovine serum albumin (BSA). After dye-loading, the cells were washed three times with Hanks buffer and incubated for 10 min at room temperature with various concentrations of test compounds prepared in Hanks buffer with 0.1% BSA. The cell plates were placed onto FDSS μCell fluorescence reader (Hamamatsu). After 20 sec reading of background fluorescence, agonist glutamate at final 100 μM and co-agonist glycine at final 50 μM were added to the cells to activate the receptor, and the resulting fluorescence changes were recorded and quantified. Based on the changes in fluorescence intensity, the pharmacological effect of test compounds were analyzed and the IC50 values derived from a non-linear least squares fitting of the concentration-dependent response to a standard logistic equation using Prism (Graphpad, Inc): Amplitude=Max Amplitude/(1+(IC50/[antagonist])^n).

[1] = system: NMDA receptor (all subtypes), native rat brain receptors; assay: [3H] MK-801 radioligand binding assay, rat brain membranes; details: 2 nM [3H] MK-801, rat brain membranes
Procedure: This example describes NMDA receptor binding assays using two different radioligands, [^3H] […] An established binding assay using the non-selective NMDA receptor ligand [^3H] […] The binding assay method using the NR2B selective receptor ligand [^3H] […] This assay serves as a selective measure of NR2B receptor binding activity in native rat brain receptors. Briefly, the brains of Male Wistar rats were homogenized (Polytron) before centrifugation at 40,000×g for 15 minutes at 4° C. After 2 washes, the final pellet was homogenized and stored at −80° C. The protein concentration was determined by Bradford assay.
Test compounds were solubilized at 10 mM in DMSO. Then the dilutions were performed with a constant solvent concentration (1% DMSO) in the assay.
After incubation for 4.5 h at room temperature, the assays were filtered on GF/B filters pretreated with 0.3% (v/v) PEI with a Brandel system for [^3H] […] The experiment was performed in duplicate (n=2).

CYP2D6 = CYP2D6 (Homo sapiens (Human), UniProt P10635); assay: CYP P450 enzyme inhibition, pooled human liver microsome; format: in vitro ADME; details: HLM, dextromethorphan 5 μM
CYP2D6, sequence (P10635 whole entry): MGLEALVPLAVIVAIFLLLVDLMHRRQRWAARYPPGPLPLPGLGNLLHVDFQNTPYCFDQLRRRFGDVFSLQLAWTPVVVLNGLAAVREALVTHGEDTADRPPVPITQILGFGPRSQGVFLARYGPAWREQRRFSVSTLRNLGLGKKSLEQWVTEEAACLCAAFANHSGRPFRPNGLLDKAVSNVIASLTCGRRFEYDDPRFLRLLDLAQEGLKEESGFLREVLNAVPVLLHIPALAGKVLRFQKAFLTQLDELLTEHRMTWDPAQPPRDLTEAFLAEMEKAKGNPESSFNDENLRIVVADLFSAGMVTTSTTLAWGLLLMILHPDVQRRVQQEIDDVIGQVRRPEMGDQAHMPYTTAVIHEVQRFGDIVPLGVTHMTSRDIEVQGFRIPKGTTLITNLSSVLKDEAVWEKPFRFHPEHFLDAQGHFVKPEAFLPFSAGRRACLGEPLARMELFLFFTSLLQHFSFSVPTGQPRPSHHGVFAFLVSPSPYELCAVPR
Procedure: Those CYP isoforms and their corresponding probe substrates are as follows: CYP1A2 (phenacetin, 30 μM), CYP2C9 (tolutamide, 100 μM), CYP2C19 (S-mephenytoin, 40 μM), CYP2D6 (dextromethorphan, 5 μM) and CYP3A4 (midazolam, 1 μM). All probe substrates were used at concentrations near or below their Kms. For experiment, a reaction mixture of test compound at 10 μM or in serial dilution, CYP probe substrate described above and 0.2 mg/mL pooled HLM in phosphate buffer, pH 7.4 in a final volume of 200 μL was pre-incubated at 37° C. for 10 minutes in triplicate. The reaction was initiated by addition of NADPH at final concentration of 1 mM. The reaction was terminated after 10 minutes (CYP1A2, CYP2D6 and CYP3A4) or 30 minutes (CYP2C9 and CYP2C19) by addition of 100 μL ice-cold acetonitrile with internal standard (IS). The samples were then centrifuged at 13,000 rpm and the supernatants were injected to LC-MS/MS (Agilent Technologies) to quantify the concentration of the specific metabolites of the probe substrates formed by individual CYP450 isoforms. The inhibition ratio is calculated as: (Mt−M0)/Mwater×100% in which Mt and M0 represent the concentrations of the specific probe substrate metabolite, which was formed by individual CYP450 isoform, at the beginning and end of the reaction in the presence of test compound; while Mwater represents the concentration of the specific metabolite at the end of the reaction in the absence of test compound. Test compound concentration-dependent response data experiments performed in triplicate.

[2] = system: electroconvulsive threshold (tonic convulsions); assay: Electroconvulsive Threshold Test (ECT); format: in vivo, rats; details: rats, 3, 10 and 30 mpk p.o., mesylate salt
Procedure: Rats were administered ECS (rectangular current: 0.6 ms pulse width, 1.5 s duration, 200 Hz) via earclip electrodes connected to a constant current shock generator (Ugo Basile: type 7801). Test compounds were administered by oral gavage (p.o.) 1 hour before the test at a dose volume of 5 mL/kg.
Treatment groups of 20 rats were exposed to ECS as follows: The first animal was exposed to 30 mA of ECS. […] (increases of 5 mA) until the first tonic convulsion was observed. Once the first tonic convulsion was observed, the intensity of ECS was decreased by 2 mA for the next animal and then decreased or increased by 2 mA from animal to animal depending on whether the previous animal convulsed or not. If the first animal did convulse (tonic convulsions) within 5 seconds, animal n°2 is exposed to 25 mA, etc . . . (decreases of 5 mA) until the absence of tonic convulsions was observed. At this point, the intensity of ECS was increased by 2 mA for the next animal and then decreased or increased by 2 mA from animal to animal depending on whether the previous animal convulsed or not. The minimum current intensity applied is 5 mA and the maximum 95 mA. The first 5 animals serve to approach threshold current and were not included in the analysis. The results are presented as the mean current intensity administered to the final 15 animals of a group. The test was performed blind. A positive percent change indicates an anticonvulsant effect. A negative percent change indicates a proconvulsant effect. The test substance was evaluated at 4 doses, typically using 0.5% dimethylsulfoxide, 4% hydroxypropyl-b-cyclodextrin water as a vehicle, and administered p.o. 60 minutes before ECS, and compared with a vehicle control group. Diazepam (16 mg/kg p.o.), administered under the same experimental conditions, was used as reference substance. The experiment included 6 groups. Data with the test substance was analyzed by comparing treated groups with vehicle control using one-way ANOVA followed by Dunnett's t tests.

[3] = system: pentylenetetrazole-induced convulsions; assay: Pentylenetetrazole (PTZ) Seizure Test; format: in vivo, rats; details: 10 mg/kg p.o., mesylate salt, PTZ 100 mg/kg s.c.
Procedure: Rats, placed in individual macrolon cages (25×19×13 cm), were injected with pentylenetetrazole (PTZ) (100 mg/kg s.c.). The occurrence and latency of clonic and tonic convulsions and death were noted over a 30 minute period. 15 rats were studied per group. The test was performed blind.
Test compound E1-8.2 was administered as the free base.
Compounds were evaluated typically using 0.5% dimethylsulfoxide, 4% hydroxypropyl-b-cyclodextrin water as a vehicle at 1 or more doses (e.g., 1, 3 and 10 mg/kg), administered p.o. 30 minutes before PTZ, and compared with a vehicle control group. Diazepam (16 mg/kg p.o.), administered 60 minutes before PTZ, was used as reference substance. The experiment was performed over 2 separate sub-experiments with N=7 to 8 animals per group and per sub-experiment. Quantitative data (latencies) with the test substance was analyzed by comparing treated groups with vehicle control using Kruskal-Wallis test followed by Mann-Whitney U test. Quantitative data with the reference substance was analyzed using Mann-Whitney U test. Quantal data (frequencies) was analyzed by comparing treated groups with vehicle control using Fisher's Exact Probability tests (*=p<0.05; **=p<0.01; ***=p<0.001).

cloned human NR1/NR2A, sequence (Q12879 23-1464, other chains not shown): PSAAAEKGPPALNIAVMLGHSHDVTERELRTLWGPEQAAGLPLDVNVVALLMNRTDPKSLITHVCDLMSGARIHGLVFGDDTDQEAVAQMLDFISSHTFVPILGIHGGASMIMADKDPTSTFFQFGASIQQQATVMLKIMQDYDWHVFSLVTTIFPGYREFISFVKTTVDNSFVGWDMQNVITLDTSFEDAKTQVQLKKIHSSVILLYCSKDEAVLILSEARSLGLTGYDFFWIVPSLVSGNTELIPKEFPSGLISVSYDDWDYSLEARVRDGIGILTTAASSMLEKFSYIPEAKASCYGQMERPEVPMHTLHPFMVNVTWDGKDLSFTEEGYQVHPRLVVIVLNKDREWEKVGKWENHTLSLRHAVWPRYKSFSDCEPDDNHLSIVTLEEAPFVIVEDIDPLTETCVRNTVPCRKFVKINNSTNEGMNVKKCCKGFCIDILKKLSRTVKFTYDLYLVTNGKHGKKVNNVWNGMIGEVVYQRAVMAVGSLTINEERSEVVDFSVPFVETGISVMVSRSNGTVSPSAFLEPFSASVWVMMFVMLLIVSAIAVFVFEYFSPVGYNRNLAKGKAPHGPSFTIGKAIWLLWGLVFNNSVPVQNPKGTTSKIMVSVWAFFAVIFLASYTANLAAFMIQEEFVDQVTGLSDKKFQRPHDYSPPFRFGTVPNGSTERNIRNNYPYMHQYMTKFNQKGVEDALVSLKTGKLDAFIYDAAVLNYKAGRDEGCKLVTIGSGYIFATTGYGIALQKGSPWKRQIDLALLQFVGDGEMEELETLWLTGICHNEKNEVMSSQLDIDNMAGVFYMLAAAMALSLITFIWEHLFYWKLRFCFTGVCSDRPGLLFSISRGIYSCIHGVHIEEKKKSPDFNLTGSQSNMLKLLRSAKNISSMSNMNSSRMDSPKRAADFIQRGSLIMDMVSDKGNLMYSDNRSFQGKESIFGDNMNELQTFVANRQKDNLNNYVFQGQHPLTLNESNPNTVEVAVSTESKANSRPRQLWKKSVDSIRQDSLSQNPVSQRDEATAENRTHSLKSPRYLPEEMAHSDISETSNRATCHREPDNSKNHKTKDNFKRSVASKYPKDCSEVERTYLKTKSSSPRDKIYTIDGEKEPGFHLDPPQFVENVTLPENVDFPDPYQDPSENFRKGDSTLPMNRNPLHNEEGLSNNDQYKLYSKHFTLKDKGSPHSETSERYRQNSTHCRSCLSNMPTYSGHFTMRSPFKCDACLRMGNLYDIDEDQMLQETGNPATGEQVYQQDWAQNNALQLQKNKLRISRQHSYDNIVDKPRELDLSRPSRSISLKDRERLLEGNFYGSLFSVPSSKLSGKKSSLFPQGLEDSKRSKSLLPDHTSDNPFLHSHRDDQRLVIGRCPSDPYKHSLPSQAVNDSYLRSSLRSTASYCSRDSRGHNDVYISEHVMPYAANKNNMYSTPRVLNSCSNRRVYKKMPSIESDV

Cc1ccc(COC(=O)N2CC[C@H](CNc3nccn4cnnc34)C(F)(F)C2)cc1 [Compound E1-1.2, (+)-R-4-methylbenzyl 4-(([1,2,4]triazolo[4,3-a]pyrazin-8-ylamino)methyl)-3,3-difluoropiperidine-1-carboxylate]
IC50 (cloned human NR1/NR2A): > 10 µM
partial effect on [3H] MK-801 binding [1]: 40%
CYP2D6 @ 10 μM (%) (CYP2D6): 14%
activity on electroconvulsive threshold [2]: robust anticonvulsant activity
latency to death, change vs vehicle controls [3]: +35%
number of deaths, change vs vehicle controls [3]: −91%
